Results: ChEMBL document CHEMBL4616595, “Targeted suppression of metastasis regulatory transcription factor SOX2 in various cancer cell lines using a sequence-specific designer pyrrole-imidazole polyamide” (Bioorg Med Chem, 2020)
The source made the active and inactive calls. The rule behind the calls is not given here.

Key:
SOX2 promoter DNA [1] = assay: Binding affinity to SOX2 promoter 5'-CTTTGTT-3' DNA in human SW620 cells assessed as down regulation of DOCK1 mRNA expression at 2 uM incubated for 48 hrs by qRT-PCR analysis; type: cell-based; settings: SW-620
SOX2 promoter DNA [2] = assay: Binding affinity to SOX2 promoter 5'-CTTTGTT-3' DNA in mouse GL261 cells assessed as reduction in SOX2 mRNA expression incubated for 48 hrs by qRT-PCR analysis; type: cell-based
SW-620 [3] = assay: Cytotoxicity against human SW620 cells assessed as reduction in cell viability incubated for 48 hrs by MTT assay; type: functional, cell-based
NHDF = assay: Cytotoxicity against HDF cells assessed as effect on cell viability measured after 48 hrs by MTT assay; type: cell-based; settings: human
SOX2 promoter DNA [4] = assay: Binding affinity to SOX2 promoter 5'-CTTTGTT-3' DNA in human SW620 cells assessed as down regulation of JAG1 mRNA expression at 2 uM incubated for 48 hrs by qRT-PCR analysis; type: cell-based; settings: SW-620
SOX2 promoter DNA [5] = assay: Binding affinity to SOX2 promoter 5'-CTTTGTT-3' DNA in human PC3 cells assessed as reduction in SOX2 mRNA expression incubated for 48 hrs by qRT-PCR analysis; type: cell-based; settings: PC-3
U2OS [6] = assay: Cell cycle arrest in human U2OS cells assessed as reduction in accumulation at G2/M phase at 2 uM to 5 uM after 48 hrs by propidium iodide staining based flow cytometry analysis; type: functional
MKN-45 [7] = assay: Cell cycle arrest in human MKN45 cells assessed as increase in accumulation at sub-G1/G1 phase at 2 uM to 5 uM after 48 hrs by propidium iodide staining based flow cytometry analysis; type: functional
SOX2 promoter DNA [8] = assay: Binding affinity to SOX2 promoter 5'-CTTTGTT-3' DNA in human SW620 cells assessed as down regulation of VIM mRNA expression at 2 uM incubated for 48 hrs by qRT-PCR analysis; type: cell-based; settings: SW-620
MCF7 [9] = assay: Cell cycle arrest in human MCF7 cells assessed as reduction in accumulation at S phase at 2 uM to 5 uM after 48 hrs by propidium iodide staining based flow cytometry analysis; type: functional
U2OS [10] = assay: Cell cycle arrest in human U2OS cells assessed as increase in accumulation at sub-G1/G1 phase at 2 uM to 5 uM after 48 hrs by propidium iodide staining based flow cytometry analysis; type: functional
SW-620 [11] = assay: Antimigratory activity in human SW620 cells assessed as reduction in cell migration at 5 uM incubated for 24 hrs by Calcein AM staining based fluorescence microscopic analysis relative to untreated control; type: functional
SW-620 [12] = assay: Up regulation of FASL mRNA expression in human SW620 cells incubated for 48 hrs by qRT-PCR analysis; type: functional, cell-based
SOX2 promoter DNA [13] = assay: Binding affinity to SOX2 promoter 5'-CTTTGTT-3' DNA (unknown origin) transfected in human SW620 cells at 2 to 10 uM incubated for 24 hrs by 6xO/s-Luc reporter gene based Steady-Glo luciferase assay; type: cell-based; settings: SW-620
SOX2 promoter DNA [14] = assay: Binding affinity to SOX2 promoter 5'-CTTTGTT-3' DNA in human MCF7 cells assessed as reduction in SOX2 mRNA expression incubated for 48 hrs by qRT-PCR analysis; type: cell-based
SOX2 promoter DNA [15] = assay: Binding affinity to SOX2 promoter 5'-CTTTGTT-3' DNA in human SW620 cells assessed as downregulation SALL4 mRNA expression incubated for 48 hrs by qRT-PCR analysis; type: cell-based; settings: SW-620
U2OS [16] = assay: Cytotoxicity against human U2OS cells assessed as reduction in cell viability incubated for 48 hrs by MTT assay; type: functional, cell-based
SOX2 promoter DNA [17] = assay: Binding affinity to SOX2 promoter 5'-CTTTGTT-3' DNA in human SW620 cells assessed as down regulation of NFKB1 mRNA expression at 2 uM incubated for 48 hrs by qRT-PCR analysis; type: cell-based; settings: SW-620
SOX2 promoter DNA [18] = assay: Binding affinity to SOX2 promoter 5'-CTTTGTT-3' DNA in mouse B16 cells assessed as reduction in SOX2 mRNA expression incubated for 48 hrs by qRT-PCR analysis; type: cell-based
SOX2 promoter DNA [19] = assay: Binding affinity to SOX2 promoter 5'-CTTTGTT-3' DNA in human MKN45 cells assessed as reduction in SOX2 protein level incubated for 48 hrs by immunostaining based FACS analysis; type: cell-based; settings: MKN-45
SOX2 promoter DNA [20] = assay: Binding affinity to SOX2 promoter 5'-CTTTGTT-3' DNA in human SW620 cells assessed as down regulation of POU5F1 gene expression at 2 uM incubated for 48 hrs by Cy3-labelled cRNA-based microarray analysis; type: cell-based; settings: SW-620
MCF7 [21] = assay: Cytotoxicity against human MCF7 cells assessed as reduction in cell viability incubated for 48 hrs by MTT assay; type: functional, cell-based
B16-F10 = assay: Anti-metastasis activity in mouse B16/F10 cells implanted in C57BL/6N mouse assessed as reduction in lung metastatic nodules at 1 mg/kg ip dosed every third day and measured on day 21 relative to untreated control; type: functional
SOX2 promoter DNA [22] = assay: Binding affinity to SOX2 promoter 5'-CTTTGTT-3' DNA in human SW620 cells assessed as downregulation beta-catenin mRNA expression incubated for 48 hrs by qRT-PCR analysis; type: cell-based; settings: SW-620
SW-620 [23] = assay: Cell cycle arrest in human SW620 cells assessed as reduction in accumulation at G2/M phase at 2 uM to 5 uM after 48 hrs by propidium iodide staining based flow cytometry analysis; type: functional
SW-620 [24] = assay: Up regulation of p21cip1 mRNA expression in human SW620 cells incubated for 48 hrs by qRT-PCR analysis; type: functional, cell-based
SOX2 promoter DNA [25] = assay: Binding affinity to SOX2 promoter 5'-CTTTGTT-3' DNA in human DU145 cells assessed as reduction in SOX2 mRNA expression incubated for 48 hrs by qRT-PCR analysis; type: cell-based; settings: DU-145
SW-620 [26] = assay: Cell cycle arrest in human SW620 cells assessed as increase in accumulation at sub-G1/G1 phase at 2 uM to 5 uM after 48 hrs by propidium iodide staining based flow cytometry analysis; type: functional
SOX2 promoter DNA [27] = assay: Binding affinity to SOX2 promoter 5'-CTTTGTT-3' DNA in human SW620 cells assessed as down regulation of ZEB2 mRNA expression at 2 uM incubated for 48 hrs by qRT-PCR analysis; type: cell-based; settings: SW-620
SOX2 promoter DNA [28] = assay: Binding affinity to SOX2 promoter 5'-CTTTGTT-3' DNA in human SW620 cells assessed as upregulation of CDKN2B mRNA expression incubated for 48 hrs by qRT-PCR analysis; type: cell-based; settings: SW-620
SOX2 promoter DNA [29] = assay: Binding affinity to SOX2 promoter 5'-CTTTGTT-3' DNA in human SW620 cells assessed as down regulation of JAG1 gene expression at 2 uM incubated for 48 hrs by Cy3-labelled cRNA-based microarray analysis; type: cell-based; settings: SW-620
SW-620 [30] = assay: Up regulation of GADD45A mRNA expression in human SW620 cells incubated for 48 hrs by qRT-PCR analysis; type: functional, cell-based
SW-620 [31] = assay: Up regulation of PUMA mRNA expression in human SW620 cells incubated for 48 hrs by qRT-PCR analysis; type: functional, cell-based
MKN-45 [32] = assay: Cytotoxicity against human MKN45 cells assessed as reduction in cell viability incubated for 48 hrs by MTT assay; type: functional, cell-based

CC(=O)Nc1cc(C(=O)Nc2cc(C(=O)Nc3cc(C(=O)NCCC(=O)Nc4cn(C)c(C(=O)Nc5cc(C(=O)NCCCC(=O)Nc6cc(C(=O)Nc7cc(C(=O)NCCC(=O)Nc8cc(C(=O)Nc9cc(C(=O)Nc%10cn(C)c(C(=O)NCCCN(C)C)n%10)n(C)c9)n(C)c8)n(C)c7)n(C)c6)n(C)c5)n4)n(C)c3)n(C)c2)n(C)c1
Activity (SOX2 promoter DNA [1]): Active | Activity (SOX2 promoter DNA [2]): Active | Activity (SW-620 [3]): Dose-dependent effect | Activity (NHDF): Non-Toxic | Activity (SOX2 promoter DNA [4]): Active | Activity (SOX2 promoter DNA [5]): Active | Activity (U2OS [6]): Active | Activity (MKN-45 [7]): Active | Activity (SOX2 promoter DNA [8]): Active | Activity (MCF7 [9]): Active | Activity (U2OS [10]): Active | fold change (FC) (SW-620 [11]): 5 | Activity (SW-620 [12]): Active | Activity (SOX2 promoter DNA [13]): Active | Activity (SOX2 promoter DNA [14]): Active | Activity (SOX2 promoter DNA [15]): Active | Activity (U2OS [16]): Dose-dependent effect | Activity (SOX2 promoter DNA [17]): Active | Activity (SOX2 promoter DNA [18]): Active | Activity (SOX2 promoter DNA [19]): Dose-dependent effect | Activity (SOX2 promoter DNA [20]): Active | Activity (MCF7 [21]): Dose-dependent effect | fold change (FC) (B16-F10): 4 | Activity (SOX2 promoter DNA [22]): Active | Activity (SW-620 [23]): Active | Activity (SW-620 [24]): Active | Activity (SOX2 promoter DNA [25]): Active | Activity (SW-620 [26]): Active | Activity (SOX2 promoter DNA [27]): Active | Activity (SOX2 promoter DNA [28]): Active | Activity (SOX2 promoter DNA [29]): Active | Activity (SW-620 [30]): Active | Activity (SW-620 [31]): Active | Activity (MKN-45 [32]): Dose-dependent effect
